{"source": "patent US20240116923A1", "about": "“USE OF INDOLE, 6- AND 7-AZAINDOLE DERIVATIVES AS INHIBITORS OF FERROPTOSIS REGULATED CELL DEATH” (Seabelife, priority 2021, published 2024)", "tested_on": "male Wistar rats", "experiment": "In vivo model of ischaemic acute renal failure induced by transient bilateral renal artery occlusion", "details": "rat, 15 mg/kg IP", "procedure": "The experiment was carried out using male Wistar rats (Janvier Labs, C.S. 4105, Saint-Berthevin F-53941, France), weighing 200-260 g on the day of surgery. Before surgery, the animals were housed in groups 2-4 in polysulfone cages (floor area=1500 cm^2) under standard conditions: room temperature (22±2° C.), hygrometry (55±10%), light/dark cycle (12 h/12 h), air replacement (15-20 volumes/hour), water and food (SAFE, ref. A04) ad libitum. The animals were allowed to acclimate to environmental conditions for at least 5 days prior to experimentation. Rats were anesthetised with sodium pentobarbital (60 mg/kg i.p.), and placed on a servocontrolled heating table to maintain rectal temperature close to 37° C. After endotracheal intubation animals were mechanically ventilated. The abdominal cavity was exposed by medial laparotomy, both left and right renal arteries will be identified, carefully dissected from the renal vein and clamped for 40 min. During this clamping period the abdominal cavity was kept closed. The clamps were released, perfusion to the kidneys re-established and the abdominal cavity sutured. Animals where reperfusion were incomplete, as judged visually, were excluded. Post-surgical analgesia was ensured by subcutaneous administration of buprenorphine (10 50 μg/kg, sc) twice daily for 2 days (including the day of surgery). After surgery, the animals were individually housed. The animals were observed and weighted daily and the sutures were examined and disinfected with antiseptic solution (povidone-iodine) if needed.\nA follow-up of body weight and mortality were performed for all animals, the day of surgery and during the 7 days following ischaemia. In order to determine creatinine and blood urea nitrogen (BUN) concentrations in plasma, 6 blood samples of at least 0.3 mL were taken from each animal: before surgery and then on days 1, 2, 3 (before vehicle/SBL01 administrations), 4 and 7 after surgery. The following parameters were measured: Creatinine concentration in plasma, Blood urea nitrogen concentration, and Body weight. […]", "data": [{"smiles": "Oc1ccc(-c2cc3cccnc3[nH]2)cc1", "note": "[Compound 7, 4-(1H-pyrrolo[2,3-b]pyridin-2-yl)phenol]", "values": [{"measurement": "creatinine plasma level", "setting": "Day 2 after surgery, vs vehicle, FIG. 40", "result": "significant decrease"}, {"measurement": "urea plasma level", "setting": "Day 2 after surgery, vs vehicle, FIG. 41", "result": "significant decrease"}, {"measurement": "renal function during artery occlusion (protection against renal ischaemic failure)", "setting": "compared to the vehicle", "result": "protective effect"}]}]}
